Measured values as given in patent US20150252022A1, “RETINOIC ACID RECEPTOR-RELATED ORPHAN RECEPTOR MODULATORS AND USES THEREOF” (INNOV17 LLC, priority 2014, published 2015).

Legend:
Assay type in all cases: cell-based
Details in all cases: 72 h; human CD4+ T cells under TH17-polarizing conditions, 3 days, supernatant ELISA
[1] = system: IL-17A; assay: Human TH17 Cytokine Inhibition as measured by ELISA (IL-17A)
Procedure: (§1) Peripheral blood mononuclear cells (PBMCs) were sourced from freshly prepared leukocyte enriched plasma (buffy coat) from healthy donors (New York Blood Center). PBMCs were isolated by density gradient centrifugation using Ficoll-Paque™ PLUS (GE Healthcare). Human CD4+ T cells were seeded into 96-well plates (5×10^4 cells/well) and activated with plate-bound anti-human (h)-CD3 antibody and soluble h-aCD28 (both at 1 ug/ml; eBioscience) and differentiated into TH17 cells with 20 ng/mL h-IL-6, 5 ng/mL h-TGF-β1, 10 ng/mL h-IL-23 (eBioscience) and 10 ng/mL IL-1β (Miltenyi Biotec) in serum-free TexMACS Medium (Miltenyi Biotec) supplemented with 1% Penicillin/Streptomycin (Lonza) for 3 days. CD4+ T cells propagated under TH17-polarizing conditions were cultured in the presence or absence of various concentrations of compounds with a final concentration of 0.1% DMSO. Supernatants were collected and stored at −20° C. until assayed for IL-17A, IL-17F and IL-21 levels by “Ready-Set-Go” ELISA kits (eBioscience) as per manufacturer's instructions. Endpoint absorbance was read at 450 nm using a microplate reader (Perkin Elmer).

[2] = system: IL-17F; assay: Human TH17 Cytokine Inhibition as measured by ELISA (IL-17F)
Procedure: as §1

[3] = system: IL-21; assay: Human TH17 Cytokine Inhibition as measured by ELISA (IL-21)
Procedure: as §1

IC50 [1] | IC50 [2] | IC50 [3] | SMILES
< 10 µM | < 10 µM | < 10 µM | Cc1ncc(-c2ccc3c(ccn3CC3CCN(C(=O)CCc4ccccc4)CC3)c2)s1 [Example 120, 1-(4-((5-(2-methylthiazol-5-yl)-1H-indol-1-yl)methyl)piperidin-1-yl)-3-phenylpropan-1-one]
< 10 µM | < 10 µM | < 10 µM | O=C(CCc1ccccc1)N1CCC(Cn2ccc3cc(-c4cnccn4)ccc32)CC1 [Example 121]
< 10 µM | < 10 µM | < 10 µM | Cc1ccc(-c2ccc3c(ccn3CC3CCN(C(=O)CCc4ccccc4)CC3)c2)nc1 [Example 122]
< 10 µM | < 10 µM | < 10 µM | Cc1ccncc1-c1ccc2c(ccn2CC2CCN(C(=O)CCc3ccccc3)CC2)c1 [Example 123]
< 10 µM | < 10 µM | < 10 µM | O=C(CCc1ccccc1)N1CCC(Cn2ccc3cc(-c4cncs4)ccc32)CC1 [Example 124]
< 10 µM | < 10 µM | < 10 µM | Cn1cc(-c2ccc3c(ccn3CC3CCN(C(=O)CCc4ccccc4)CC3)c2)cn1 [Example 125]

Second part, the compound before the results:

SMILES | IC50 [1] | IC50 [2] | IC50 [3]
O=C(CCc1ccccc1)N1CCC(Cn2ccc3cc(-c4cnn(CCO)c4)ccc32)CC1 [Example 118, 1-(4-((5-(1-(2-hydroxyethyl)-1H-pyrazol-4-yl)-1H-indol-1-yl)methyl)piperidin-1-yl)-3-phenylpropan-1-one] | < 10 µM | < 10 µM | < 10 µM
NC(=O)Cn1cc(-c2ccc3c(ccn3CC3CCN(C(=O)CCc4ccccc4)CC3)c2)cn1 [Example 119, 2-(4-(1-((1-(3-phenylpropanoyl)piperidin-4-yl)methyl)-1H-indol-5-yl)-1H-pyrazol-1-yl)acetamide] | > 10 µM | > 10 µM | < 10 µM
Cc1cc2cc(-c3cn[nH]c3)ccc2n1CC1CCN(C(=O)CCc2ccccc2)CC1 [Example 132, 1-(4-((2-methyl-5-(1H-pyrazol-4-yl)-1H-indol-1-yl)methyl)piperidin-1-yl)-3-phenylpropan-1-one] | < 10 µM | < 10 µM | < 10 µM
Cc1cc2cc(-c3cn[nH]c3)ccc2n1CC1CCN(C(=O)Cc2ccccc2)CC1 [Example 133, 1-(4-((2-methyl-5-(1H-pyrazol-4-yl)-1H-indol-1-yl)methyl)piperidin-1-yl)-2-phenylethanone] | < 10 µM | < 10 µM | < 10 µM
